Measurements: ChEMBL document CHEMBL2046343, “'Click' synthesis of a triazole-based inhibitor of Met functions in cancer cells” (Bioorg Med Chem Lett, 2012)
Active and inactive are the calls of the source. The rule behind the calls is not given here.

Assays:
MDCK = assay: Cytotoxicity against MDCK cells at IC50; type: cell-based, Canis lupus familiaris; settings: dog
[1] = (§1) Cytotoxicity against human GTL16 cells expressing MET assessed as inhibition of anchorage-independent cell growth treated every 3 days for 2 weeks by MTT assay; type: functional, cell-based; settings: GTL 16
NCI-H1437 = assay: Cytotoxicity against human NCI-H1437 cells assessed as inhibition of anchorage-independent cell growth treated every 3 days for 2 weeks by MTT assay; type: functional, cell-based
GTL 16 = assay: as §1; type: functional, cell-based
H1437 = assay: Inhibition of HGF-induced Met R988C mutant phosphorylation at Tyr1234 and Tyr1235 in human H1437 cells at 10 uM by immunoblotting
[2] = target: Hepatocyte growth factor receptor (Canis lupus familiaris) (UniProt Q75ZY9); assay: Inhibition of HGF-induced Met phosphorylation at Tyr1234 and Tyr1235 in MDCK cells at 10 uM by immunoblotting; type: cell-based
Chain of Hepatocyte growth factor receptor (Canis lupus familiaris) (Q75ZY9 whole entry): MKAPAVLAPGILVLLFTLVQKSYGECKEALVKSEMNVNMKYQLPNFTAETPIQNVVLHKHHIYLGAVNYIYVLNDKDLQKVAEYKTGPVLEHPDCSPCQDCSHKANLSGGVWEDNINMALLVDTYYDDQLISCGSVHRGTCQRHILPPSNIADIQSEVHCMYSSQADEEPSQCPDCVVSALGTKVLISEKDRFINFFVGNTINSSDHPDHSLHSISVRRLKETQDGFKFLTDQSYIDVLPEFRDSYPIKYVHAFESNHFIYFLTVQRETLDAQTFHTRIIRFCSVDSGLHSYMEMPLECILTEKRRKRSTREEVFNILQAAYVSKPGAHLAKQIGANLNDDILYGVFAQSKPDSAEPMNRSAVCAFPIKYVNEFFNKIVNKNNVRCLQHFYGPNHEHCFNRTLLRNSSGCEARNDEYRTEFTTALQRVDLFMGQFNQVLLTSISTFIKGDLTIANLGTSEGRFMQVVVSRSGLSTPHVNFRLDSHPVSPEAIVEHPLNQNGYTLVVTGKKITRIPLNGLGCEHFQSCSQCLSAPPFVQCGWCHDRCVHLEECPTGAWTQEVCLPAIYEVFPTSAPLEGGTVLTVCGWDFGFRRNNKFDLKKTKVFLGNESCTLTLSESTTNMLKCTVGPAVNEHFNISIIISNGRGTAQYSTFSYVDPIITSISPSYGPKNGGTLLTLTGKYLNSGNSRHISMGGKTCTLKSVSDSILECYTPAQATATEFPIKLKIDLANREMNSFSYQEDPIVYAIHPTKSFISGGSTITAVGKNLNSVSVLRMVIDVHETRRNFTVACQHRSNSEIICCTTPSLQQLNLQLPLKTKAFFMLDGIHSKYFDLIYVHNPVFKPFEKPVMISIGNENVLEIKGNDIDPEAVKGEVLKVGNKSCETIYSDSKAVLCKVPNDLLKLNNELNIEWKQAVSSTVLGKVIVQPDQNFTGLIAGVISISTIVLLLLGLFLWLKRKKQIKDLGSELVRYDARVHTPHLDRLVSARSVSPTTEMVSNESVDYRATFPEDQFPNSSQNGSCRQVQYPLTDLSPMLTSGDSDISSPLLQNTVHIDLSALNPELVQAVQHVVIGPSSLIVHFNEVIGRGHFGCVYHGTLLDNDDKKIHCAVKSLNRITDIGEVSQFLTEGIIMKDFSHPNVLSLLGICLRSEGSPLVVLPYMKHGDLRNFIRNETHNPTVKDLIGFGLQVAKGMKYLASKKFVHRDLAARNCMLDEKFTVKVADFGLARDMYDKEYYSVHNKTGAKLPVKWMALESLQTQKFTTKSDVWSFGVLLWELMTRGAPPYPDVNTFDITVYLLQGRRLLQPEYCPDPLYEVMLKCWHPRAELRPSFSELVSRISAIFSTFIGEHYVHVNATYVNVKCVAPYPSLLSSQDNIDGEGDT

Structure (SMILES)	Activity (MDCK)	IC50 [1] [nM]	growth inhibition (GI) (NCI-H1437)	growth inhibition (GI) (GTL 16)	inhibition (H1437)	inhibition [2]
O=C(Cc1cc(C(F)(F)F)cc(C(F)(F)F)c1)N[C@@H](Cc1ccccc1)C(=O)Nc1ccc(-c2cn3c(n2)sc2ccccc23)cc1	Non-toxic	800				
O=C(Cc1cc(C(F)(F)F)cc(C(F)(F)F)c1)N[C@H](Cc1ccccc1)C(=O)Nc1ccc(-c2cn3c(n2)sc2ccccc23)cc1	Non-toxic	1190				
O=C(Cc1cc(C(F)(F)F)cc(C(F)(F)F)c1)NC(Cc1ccccc1)c1cn(-c2ccc(-c3cn4c(n3)sc3ccccc34)cc2)nn1 (stereo not given)	Non-toxic	8500	Dose-dependent effect	Dose-dependent effect	Active	Active
